Source: patent US9770452B2, “Quinoxaline derivatives as GPR6 modulators” (Takeda Pharmaceutical Company Limited, priority 2012, dated 2017)

biological target: T1, GPR6 receptor (Homo sapiens, UniProt P46095); assay: Inhibition of cAMP Activity of GPR6 In Vitro Assay (CHO-K1 cells, HTRF cAMP); type: cell-based; settings: compounds of Compound Table 1; inhibition of constitutive cAMP activity of GPR6 expressed in CHO-K1 cells; approximate IC50; read-out: IC50
T1 construct: expressed in transfected cells
Method: Inhibition of cAMP Activity of GPR6 In Vitro Assay
This cell based assay measures the ability of compounds to inhibit the constitutive cAMP activity of GPR6 receptor expressed in CHO-K1 cells. CHO cells were stably expressed with GPR6 receptor, whose expression is controlled by a tetracycline inducable element. The cells were cultured in medium containing F12K, 10% FBS, 1% Penn/Strep, 200 ug/mL Hygromycin. GPR6 receptor expression was induced for 20 hrs with 1 μg/ml doxycycline (sigma D9891) in growth media. After addition of doxycycline cells were plated at a density of 250-500 cells per well in half-volume black clear bottom plates (Costar) and place in an incubator (37°, 5% C(O)2) for 20 hours prior to cAMP assays.
Culture media was removed from cells and they were washed with 50 μL of Ringer's Buffer (MgCl2 0.047 mg/mL, NaH2PO4 0.18 mg/mL, Na2HPO4 0.1 mg/mL, KCl 0.34 mg/mL, NaHC(O)3 1.26 mg/mL, D-glucose 1.8 mg/mL, NaCl 7 mg/mL; pH=7.4). Compounds suspended in DMSO were diluted in Ringer's Buffer containing 0.5% fatty acid free BSA and incubated on cells for 45 min at […] and 5% C(O)2. After incubation cells were incubated for 10 min at room temp with Eu-cAMP tracer solution from a Perkin Elmer Lance HTRF UltracAMP assay kit (TRF0264). Then ULight™-anti-cAMP solution from the Lance HTRF kit was added and incubated on a shaker at room temp for 1 hour prior to HTRF detection in a BMG PolarStar Omega.
IC50 curves were generated with a four-parameter logistic equation using GraphPad Prism 5.03.

T1 sequence (P46095 whole entry): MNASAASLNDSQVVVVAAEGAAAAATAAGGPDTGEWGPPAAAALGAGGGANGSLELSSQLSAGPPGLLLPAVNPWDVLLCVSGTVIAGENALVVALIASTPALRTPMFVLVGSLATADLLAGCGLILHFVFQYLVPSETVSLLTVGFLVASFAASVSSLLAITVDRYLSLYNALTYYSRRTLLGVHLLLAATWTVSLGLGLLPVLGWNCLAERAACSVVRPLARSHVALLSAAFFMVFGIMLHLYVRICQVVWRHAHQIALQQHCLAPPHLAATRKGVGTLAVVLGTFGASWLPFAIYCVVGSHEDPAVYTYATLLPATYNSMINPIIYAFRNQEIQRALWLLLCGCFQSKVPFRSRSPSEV

Row | Substance | IC50
1 | 1-(4-((1-(2-(cyclopropylamino)pyrido[3,4-b]pyrazin-3-yl)piperidin-4-yl)oxy)phenyl)ethanone, 2,2,2-trifluoroacetic acid salt [Cpd 582] | 7 nM
2 | 2-(4-(2,4-difluorobenzyl)piperidin-1-yl)-N-(2,2-difluoroethyl)pyrido[3,4-b]pyrazin-3-amine [Cpd 428] | 20 nM
3 | 2-(4-(2,4-difluorophenoxy)piperidin-1-yl)-N-isopropylpyrido[3,4-b]pyrazin-3-amine [Cpd 656] | 14 nM
4 | 2-(4-(4-chloro-2-fluorophenoxy)piperidin-1-yl)-3-(isopropylamino)quinoxaline-6-carbonitrile, hydrogen chloride salt [Cpd 626] | 90 nM
5 | 2-((1-(2-(cyclopropylamino)pyrido[3,4-b]pyrazin-3-yl)piperidin-4-yl)oxy)benzonitrile [Cpd 574] | 4810 nM
6 | 2-((2,2-difluoroethyl)amino)-3-(4-(2,4-difluorophenoxy)piperidin-1-yl)-N,N-dimethylpyrido[3,4-b]pyrazine-7-carboxamide, 2,2,2-trifluoroacetic acid salt [Cpd 649] | 44 nM
7 | 2-((2,2-difluoroethyl)amino)-3-(4-(2,4-difluorophenoxy)piperidin-1-yl)pyrido[3,4-b]pyrazine-7-carbonitrile, 2,2,2-trifluoroacetic acid salt [Cpd 646] | 538 nM
8 | 2-((2,2-difluoroethyl)amino)-3-(4-(2,4-difluorophenoxy)piperidin-1-yl)quinoxaline-6-carbonitrile [Cpd 513] | 71 nM
9 | 2-(cyclobutylamino)-3-(4-(2,5-dichlorobenzyl)piperazin-1-yl)quinoxaline-6-carbonitrile, 2,2,2-trifluoroacetic acid salt [Cpd 336] | 960 nM
10 | 2-(cyclopropylamino)-3-(4-(2,4-difluorobenzyl)piperazin-1-yl)pyrido[3,4-b]pyrazine-5-carbonitrile, 2,2,2-trifluoroacetic acid salt [Cpd 612] | 114 nM
11 | 2-(cyclopropylamino)-3-(4-(2,4-difluorobenzyl)piperidin-1-yl)quinoxaline-6-carbonitrile, 2,2,2-trifluoroacetic acid salt [Cpd 416] | 1510 nM
12 | 2-(cyclopropylamino)-3-(4-(2,4-difluorophenoxy)piperidin-1-yl)-N,N-dimethylpyrido[3,4-b]pyrazine-7-carboxamide [Cpd 597] | 89 nM
13 | 2-(cyclopropylamino)-3-(4-(2,5-dichloroisonicotinoyl)piperazin-1-yl)quinoxaline-6-carbonitrile [Cpd 265] | 300 nM
14 | 2-(cyclopropylamino)-3-(4-(2,5-difluorobenzyl)piperazin-1-yl)quinoxaline-6-carbonitrile, 2,2,2-trifluoroacetic acid salt [Cpd 257] | 310 nM
15 | 2-(cyclopropylamino)-3-(4-(2-fluoro-4-methoxybenzyl)piperazin-1-yl)-N,N-dimethylpyrido[3,4-b]pyrazine-7-carboxamide, 2,2,2-trifluoroacetic acid salt [Cpd 614] | 66 nM
16 | 2-(cyclopropylamino)-3-(4-(2-fluoro-4-methoxybenzyl)piperazin-1-yl)pyrido[3,4-b]pyrazine-5-carbonitrile, 2,2,2-trifluoroacetic acid salt [Cpd 613] | 92 nM
17 | 2-(cyclopropylamino)-3-(4-(2-fluoro-4-methoxyphenoxy)piperidin-1-yl)pyrido[3,4-b]pyrazine-5-carbonitrile, 2,2,2-trifluoroacetic acid salt [Cpd 605] | 36 nM
18 | 2-(cyclopropylamino)-3-(4-((2,4-difluorophenyl)fluoromethyl)piperidin-1-yl)quinoxaline-6-carbonitrile, 2,2,2-trifluoroacetic acid salt [Cpd 480] | 72 nM

Row | Substance | IC50
19 | 2-(cyclopropylamino)-3-(4-((2,5-dichlorophenyl)sulfonyl)piperazin-1-yl)quinoxaline-6-carbonitrile [Cpd 226] | 570 nM
20 | 2-(cyclopropylamino)-3-(4-((2,5-dimethoxyphenyl)sulfonyl)piperazin-1-yl)quinoxaline-6-carbonitrile, 2,2,2-trifluoroacetic acid salt [Cpd 329] | 1300 nM
21 | 2-(cyclopropylamino)-3-(4-((2-fluorophenyl)sulfonyl)piperazin-1-yl)quinoxaline-6-carbonitrile, 2,2,2-trifluoroacetic acid salt [Cpd 241] | 650 nM
22 | 2-(cyclopropylamino)-3-(4-((4-(trifluoromethoxy)phenyl)sulfonyl)piperazin-1-yl)quinoxaline-6-carbonitrile, 2,2,2-trifluoroacetic acid salt [Cpd 283] | 420 nM
23 | 2-(cyclopropylamino)-3-(4-(m-tolylsulfonyl)piperazin-1-yl)quinoxaline-6-carbonitrile [Cpd 239] | 4740 nM
24 | 2-(cyclopropylamino)-3-(4-(phenylsulfonyl)piperazin-1-yl)quinoxaline-6-carbonitrile [Cpd 162] | 4630 nM
25 | 2-(cyclopropylamino)-3-(4-tosylpiperazin-1-yl)quinoxaline-6-carbonitrile [Cpd 240] | 4590 nM
26 | 3-(1-(2-(cyclopropylamino)pyrido[3,4-b]pyrazin-3-yl)piperidine-4-carbonyl)-4-fluorobenzonitrile, 2,2,2-trifluoroacetic acid salt [Cpd 587] | 78 nM
27 | 3-(1-(7-bromo-2-(cyclopropylamino)pyrido[3,4-b]pyrazin-3-yl)piperidine-4-carbonyl)-4-fluorobenzonitrile [Cpd 602] | 146 nM
28 | 3-(4-(2,4-difluorobenzyl)piperazin-1-yl)-2-(isopropylamino)-N,N-dimethylpyrido[3,4-b]pyrazine-7-carboxamide, 2,2,2-trifluoroacetic acid salt [Cpd 634] | 6 nM
29 | 3-(4-(2,4-difluorobenzyl)piperazin-1-yl)-N-isopropylpyrazino[2,3-d]pyridazin-2-amine 2,2,2-trifluoroacetate [Cpd 650] | 1000 nM
30 | 3-(4-(2,4-difluorobenzyl)piperidin-1-yl)-2-((2-methoxyethyl)amino)quinoxaline-6-carbonitrile [Cpd 518] | 24 nM
31 | 3-(4-(2,4-difluorobenzyl)piperidin-1-yl)-2-(isopropylamino)quinoxaline-6-carbonitrile [Cpd 461] | 20 nM
32 | 3-(4-(2,4-difluorobenzyl)piperidin-1-yl)-N-(2-methoxyethyl)pyrido[3,4-b]pyrazin-2-amine, 2,2,2-trifluoroacetic acid salt [Cpd 519] | 250 nM
33 | 3-(4-(2,4-difluorophenoxy)piperidin-1-yl)-N-(2-methoxyethyl)pyrido[3,4-b]pyrazin-2-amine, 2,2,2-trifluoroacetic acid salt [Cpd 525] | 29 nM
34 | 3-(4-(2,4-difluorophenoxy)piperidin-1-yl)-N-isopropylpyrazino[2,3-d]pyridazin-2-amine, 2,2,2-trifluoroacetic acid salt [Cpd 632] | 28 nM
35 | 3-(4-(2,4-difluorophenoxy)piperidin-1-yl)-N-isopropylpyrido[3,4-b]pyrazin-2-amine, 2,2,2-trifluoroacetic acid salt [Cpd 620] | 18 nM
